Source: patent publication US9833497B2, “Human originated EGF domain proteins and use of the same” (CHENGDU SOURCEBIO LIMITED-LIABILITY COMPANY, priority 2013, dated 2017)

What was measured:
Assay type in all cases: cell-based
[1] = system: Aeromonas hydrophila; test: MIC against Gram-negative bacteria: Aeromonas hydrophila; details: for MIC A. hydrophila / MIC against A. hydrophila: 5×10^5 CFU/mL; for MIC against A. hydrophila: Aeromonas hydrophila
Method in brief: (§1)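 Read-out is absence of bacterial growth, with MIC set at the lowest recombinant protein concentration achieving it. Bacteria, pre-grown in LB to McFarland 0.5 and resuspended, were exposed at 5×10^5 CFU/mL to two-fold diluted human EGF domain proteins in triplicate at 37° C, 175 rpm.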

[2] = system: Citrobacter diversus; test: MIC against Gram-negative bacteria: Citrobacter diversus; details: for MIC C. diversus / MIC against C. diversus: 5×10^5 CFU/mL; for MIC against C. diversus: Citrobacter diversus
Method in brief: as §1

[3] = system: Proteus vulgaris; test: MIC against Gram-negative bacteria: Proteus vulgaris; details: for MIC P. vulgaris / MIC against P. vulgaris: 5×10^5 CFU/mL; for MIC against P. vulgaris: Proteus vulgaris
Method in brief: as §1

[4] = system: E. coli DH5α; test: Antibacterial activity: MIC and growth curve against E. coli DH5α in 96-well plate; details: minimal inhibitory concentration against E. coli DH5α; 96-well plate, 5×10^5 CFU/mL, 37° C., judged after 8 h
Method in brief: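 Log-phase DH5α (OD600 about 0.5, 37° C, 185 rpm in LB) was pelleted, resuspended in fresh LB and seeded at 5×10^5 CFU/mL with recombinant protein at 50, 25 and 12.5 μg/mL (two-fold series), in triplicate. Plates were shaken at 175 rpm, 37° C, and OD600 was read every 30 min. MIC was the lowest concentration with no growth.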

[5] = system: Klebsiella pneumonia; test: MIC against Gram-negative bacteria: Klebsiella pneumonia; details: for MIC K. pneumonia / MIC against K. pneumonia: 5×10^5 CFU/mL; for MIC against K. pneumonia: Klebsiella pneumonia
Method in brief: as §1

[6] = system: Moraxella catarrhalis; test: MIC against Gram-negative bacteria: Moraxella catarrhalis; details: for MIC M. catarrhalis / MIC against M. catarrhalis: 5×10^5 CFU/mL; for MIC against M. catarrhalis: Moraxella catarrhalis
Method in brief: as §1

[7] = system: Pseudomonas aeruginosa; test: MIC against Gram-negative bacteria: Pseudomonas aeruginosa; details: for MIC P. aeruginosa / MIC against P. aeruginosa: 5×10^5 CFU/mL; for MIC against P. aeruginosa: Pseudomonas aeruginosa
Method in brief: as §1

[8] = system: E. coli BL21; test: MIC against Gram-negative bacteria: E. coli BL21; details: for MIC E. coli BL21 / MIC against E. coli BL21: 5×10^5 CFU/mL
Method in brief: as §1

[9] = system: Proteus mirabilis; test: MIC against Gram-negative bacteria: Proteus mirabilis; details: for MIC P. mirabilis / MIC against P. mirabilis: 5×10^5 CFU/mL; for MIC against P. mirabilis: Proteus mirabilis
Method in brief: as §1

[10] = system: Serratia marcescens; test: MIC against Gram-negative bacteria: Serratia marcescens; details: for MIC S. marcescens / MIC against S. marcescens: 5×10^5 CFU/mL; for MIC against S. marcescens: Serratia marcescens
Method in brief: as §1

[11] = system: Enterobacter cloacae; test: MIC against Gram-negative bacteria: Enterobacter cloacae; details: for MIC E. cloacae / MIC against E. cloacae: 5×10^5 CFU/mL; for MIC against E. cloacae: Enterobacter cloacae
Method in brief: as §1

[12] = E. coli BL21, 96-well plate, 37° C., 10 h
[13] = 10 h cultivation at 37° C., two-fold serial dilution

## PRT630 (CQCSGNVDPNAVGNCDPLSGHCLRCLHNTTGDHCEHCQEGFYGSALAPRPADKCMP; listed as Homo sapiens)
[1]; 96-well plate, 37° C., 10 h
  MIC A. hydrophila: 25 µg/mL
[2]; 96-well plate, 37° C., 10 h
  MIC C. diversus: 12.5 µg/mL
[3]; 96-well plate, 37° C., 10 h
  MIC P. vulgaris: 25 µg/mL
[4]
  MIC: 50 µg/mL
[5]; 96-well plate, 37° C., 10 h
  MIC K. pneumonia: 25 µg/mL
[6]; 96-well plate, 37° C., 10 h
  MIC M. catarrhalis: 25 µg/mL
[7]; 96-well plate, 37° C., 10 h
  MIC P. aeruginosa: 12.5 µg/mL
[8]; 96-well plate, 37° C., 10 h
  MIC E. coli BL21: 25 µg/mL
[9]; 96-well plate, 37° C., 10 h
  MIC P. mirabilis: 12.5 µg/mL
[10]; 96-well plate, 37° C., 10 h
  MIC S. marcescens: 12.5 µg/mL
[11]; 96-well plate, 37° C., 10 h
  MIC E. cloacae: 12.5 µg/mL

## PRT1252 (CPLTCDDISGQVTCPPDWPCGSPGCWCPEGQVLGSEGWCV; listed as Homo sapiens)
[1]; 96-well plate, 37° C., 10 h
  MIC against A. hydrophila: 50 µg/mL
[2]; 96-well plate, 37° C., 10 h
  MIC against C. diversus: 12.5 µg/mL
[3]; 96-well plate, 37° C., 10 h
  MIC against P. vulgaris: 25 µg/mL
[4]
  MIC: 12.5 µg/mL
[5]; 96-well plate, 37° C., 10 h
  MIC against K. pneumonia: 12.5 µg/mL
[6]; 96-well plate, 37° C., 10 h
  MIC against M. catarrhalis: 25 µg/mL
[7]; 96-well plate, 37° C., 10 h
  MIC against P. aeruginosa: 25 µg/mL
[8]; [12]
  MIC against E. coli BL21: 50 µg/mL
[9]; 96-well plate, 37° C., 10 h
  MIC against P. mirabilis: 50 µg/mL
[10]; 96-well plate, 37° C., 10 h
  MIC against S. marcescens: 12.5 µg/mL
[11]; 96-well plate, 37° C., 10 h
  MIC against E. cloacae: 25 µg/mL

## PRT1267 (CNHGNGGCQHSCDDTADGPECSCHPQYKMHTDGRSC; listed as Homo sapiens)
[1]; 96-well plate, 37° C., 10 h
  MIC against A. hydrophila: 50 µg/mL
[2]; 96-well plate, 37° C., 10 h
  MIC against C. diversus: 12.5 µg/mL
[3]; 96-well plate, 37° C., 10 h
  MIC against P. vulgaris: 25 µg/mL
[4]
  MIC: 12.5 µg/mL
[5]; 96-well plate, 37° C., 10 h
  MIC against K. pneumonia: 25 µg/mL
[6]; 96-well plate, 37° C., 10 h
  MIC against M. catarrhalis: 25 µg/mL
[7]; 96-well plate, 37° C., 10 h
  MIC against P. aeruginosa: 50 µg/mL
[8]; [12]
  MIC against E. coli BL21: 25 µg/mL
[9]; 96-well plate, 37° C., 10 h
  MIC against P. mirabilis: 50 µg/mL
[10]; 96-well plate, 37° C., 10 h
  MIC against S. marcescens: 12.5 µg/mL
[11]; 96-well plate, 37° C., 10 h
  MIC against E. cloacae: 12.5 µg/mL

## PRT1025 (GHNYCSVNNGGCTHLCLATPGSRTCRCPDNTLGVDCI; listed as Homo sapiens)
[1]; A. hydrophila, 10 h cultivation at 37° C.
  MIC: 100 µg/mL
[2]; C. diversus, 10 h cultivation at 37° C.
  MIC: 50 µg/mL
[3]; P. vulgaris, 10 h cultivation at 37° C.
  MIC: 25 µg/mL
[4]
  MIC: 50 µg/mL
[5]; K. pneumonia, 10 h cultivation at 37° C.
  MIC: 25 µg/mL
[6]; M. catarrhalis, 10 h cultivation at 37° C.
  MIC: 25 µg/mL
[7]; P. aeruginosa, 10 h cultivation at 37° C.
  MIC: 12.5 µg/mL
[8]; E. coli BL21, 10 h cultivation at 37° C.
  MIC: 25 µg/mL
[9]; P. mirabilis, 10 h cultivation at 37° C.
  MIC: 12.5 µg/mL
[10]; S. marcescens, 10 h cultivation at 37° C.
  MIC: 50 µg/mL
[11]; E. cloacae, 10 h cultivation at 37° C.
  MIC: 50 µg/mL

## PRT1105 (EIDECWSQPCLNGATCQDALGAYFCDCAPGFLGDHCE; listed as Homo sapiens)
[1]; [13]
  MIC A. hydrophila: 25 µg/mL
[2]; [13]
  MIC C. diversus: 12.5 µg/mL
[3]; [13]
  MIC P. vulgaris: 12.5 µg/mL
[4]
  MIC: 12.5 µg/mL
[5]; [13]
  MIC K. pneumonia: 12.5 µg/mL
[6]; [13]
  MIC M. catarrhalis: 25 µg/mL
[7]; [13]
  MIC P. aeruginosa: 50 µg/mL
[8]; [13]
  MIC E. coli BL21: 25 µg/mL
[9]; [13]
  MIC P. mirabilis: 50 µg/mL
[10]; [13]
  MIC S. marcescens: 50 µg/mL
[11]; [13]
  MIC E. cloacae: 50 µg/mL
